Measured values as given in US12667735B2, “Methods for reducing pain during photodynamic therapy of actinic keratosis” (Sun Pharmaceutical Industries, Inc., priority 2019, dated 2026).

Legend:
[1] = Daily home questionnaire of side effects, first 4 days after PDT; assay type: in vivo, human; conditions: for Pain Score Mean (0-10 visual-analog scale): average of 23 patients
Procedure: (§1) Several secondary endpoints were also measured. For pain assessment, patients were asked every 5 to 10 min during illumination to report their pain on a 0 to 10 visual-analog (VAS) scale. Erythema was recorded photographically at Day 1 and on Day 4 post PDT. A side effect profile was recorded by each patient in a daily home questionnaire to document the presence or absence of eleven different signs and symptoms in the 4 days immediately following PDT (see Table 2).

[2] = Erythema after PDT, recorded photographically; assay type: in vivo, human; conditions: 1-4 days after PDT; majority of patients
Procedure: as §1

Spotty erythema (inflamed AK lesions), Side A versus Side B [2]: approximately equal on Side A and Side B
SMILES: NCC(=O)CCC(=O)O [ALA, 5-aminolevulinic acid]
Peeling ([1]; Side A (test PDT), DAY 2): 4 percentage of patients | Redness ([1]; Side A (test PDT), DAY 2): 100, 100 percentage of patients | Stinging ([1]; Side A (test PDT), DAY 2): 70, 70 percentage of patients | Swelling ([1]; Side A (test PDT), DAY 2): 26, 26 percentage of patients | Pain Score Mean (0-10 visual-analog scale) ([1]; Side A (test PDT), DAY 2): 2.5 | Bleeding ([1]; Side A (test PDT), DAY 3): 13 percentage of patients | Blisters ([1]; Side A (test PDT), DAY 3): 17 percentage of patients | Burning ([1]; Side A (test PDT), DAY 3): 35, 35 percentage of patients | Crusting ([1]; Side A (test PDT), DAY 3): 30 percentage of patients | Itching ([1]; Side A (test PDT), DAY 3): 70 percentage of patients | Open sores ([1]; Side A (test PDT), DAY 3): 9, 9 percentage of patients | Peeling ([1]; Side A (test PDT), DAY 3): 22 percentage of patients | Redness ([1]; Side A (test PDT), DAY 3): 91 percentage of patients | Stinging ([1]; Side A (test PDT), DAY 3): 39, 39 percentage of patients | Swelling ([1]; Side A (test PDT), DAY 3): 9 percentage of patients | Pain Score Mean (0-10 visual-analog scale) ([1]; Side A (test PDT), DAY 3): 1.6 | Bleeding ([1]; Side A (test PDT), DAY 4): 17 percentage of patients | Blisters ([1]; Side A (test PDT), DAY 4): 4 percentage of patients | Burning ([1]; Side A (test PDT), DAY 4): 26, 26 percentage of patients | Crusting ([1]; Side A (test PDT), DAY 4): 35, 35 percentage of patients | Itching ([1]; Side A (test PDT), DAY 4): 65, 65 percentage of patients | Open sores ([1]; Side A (test PDT), DAY 4): 4, 4 percentage of patients | Peeling ([1]; Side A (test PDT), DAY 4): 48 percentage of patients | Redness ([1]; Side A (test PDT), DAY 4): 83 percentage of patients | Stinging ([1]; Side A (test PDT), DAY 4): 35, 35 percentage of patients | Swelling ([1]; Side A (test PDT), DAY 4): 0, 0 percentage of patients | Pain Score Mean (0-10 visual-analog scale) ([1]; Side A (test PDT), DAY 4): 1.0, 1.0 | Bleeding ([1]; Side B (control PDT), DAY 1): 0, 0 percentage of patients | Blisters ([1]; Side B (control PDT), DAY 1): 13, 13 percentage of patients | Burning ([1]; Side B (control PDT), DAY 1): 65, 65 percentage of patients | Crusting ([1]; Side B (control PDT), DAY 1): 4 percentage of patients | Itching ([1]; Side B (control PDT), DAY 1): 43, 43 percentage of patients | Open sores ([1]; Side B (control PDT), DAY 1): 0, 0 percentage of patients | Peeling ([1]; Side B (control PDT), DAY 1): 0 percentage of patients | Redness ([1]; Side B (control PDT), DAY 1): 91, 91 percentage of patients | Stinging ([1]; Side B (control PDT), DAY 1): 65, 65 percentage of patients | Swelling ([1]; Side B (control PDT), DAY 1): 22 percentage of patients | Pain Score Mean (0-10 visual-analog scale) ([1]; Side B (control PDT), DAY 1): 2.9 | Bleeding ([1]; Side B (control PDT), DAY 2): 0 percentage of patients | Blisters ([1]; Side B (control PDT), DAY 2): 9 percentage of patients | Burning ([1]; Side B (control PDT), DAY 2): 52, 52 percentage of patients | Crusting ([1]; Side B (control PDT), DAY 2): 17 percentage of patients | Itching ([1]; Side B (control PDT), DAY 2): 74, 74 percentage of patients | Open sores ([1]; Side B (control PDT), DAY 2): 9, 9 percentage of patients | Peeling ([1]; Side B (control PDT), DAY 2): 9 percentage of patients | Redness ([1]; Side B (control PDT), DAY 2): 100, 100 percentage of patients | Stinging ([1]; Side B (control PDT), DAY 2): 70, 70 percentage of patients | Swelling ([1]; Side B (control PDT), DAY 2): 26, 26 percentage of patients | Pain Score Mean (0-10 visual-analog scale) ([1]; Side B (control PDT), DAY 2): 2.4 | Bleeding ([1]; Side B (control PDT), DAY 3): 4 percentage of patients | Blisters ([1]; Side B (control PDT), DAY 3): 13 percentage of patients | Burning ([1]; Side B (control PDT), DAY 3): 35, 35 percentage of patients | Crusting ([1]; Side B (control PDT), DAY 3): 26 percentage of patients | Itching ([1]; Side B (control PDT), DAY 3): 65 percentage of patients | Open sores ([1]; Side B (control PDT), DAY 3): 9, 9 percentage of patients | Peeling ([1]; Side B (control PDT), DAY 3): 26 percentage of patients | Redness ([1]; Side B (control PDT), DAY 3): 87 percentage of patients | Stinging ([1]; Side B (control PDT), DAY 3): 39, 39 percentage of patients | Swelling ([1]; Side B (control PDT), DAY 3): 13 percentage of patients | Pain Score Mean (0-10 visual-analog scale) ([1]; Side B (control PDT), DAY 3): 1.5 | Bleeding ([1]; Side B (control PDT), DAY 4): 13 percentage of patients | Blisters ([1]; Side B (control PDT), DAY 4): 9 percentage of patients | Burning ([1]; Side B (control PDT), DAY 4): 26, 26 percentage of patients | Crusting ([1]; Side B (control PDT), DAY 4): 35, 35 percentage of patients | Itching ([1]; Side B (control PDT), DAY 4): 65, 65 percentage of patients | Open sores ([1]; Side B (control PDT), DAY 4): 4, 4 percentage of patients | Peeling ([1]; Side B (control PDT), DAY 4): 52 percentage of patients | Redness ([1]; Side B (control PDT), DAY 4): 74 percentage of patients | Stinging ([1]; Side B (control PDT), DAY 4): 35, 35 percentage of patients | Swelling ([1]; Side B (control PDT), DAY 4): 0, 0 percentage of patients | Pain Score Mean (0-10 visual-analog scale) ([1]; Side B (control PDT), DAY 4): 1.0, 1.0 | Major inflammatory parameters, Side A versus Side B ([1]; first 4 days post-treatment): no noticeable differences
